Data on one molecule can be found in PMC9468336, “The choanoflagellate pore-forming lectin SaroL-1 punches holes in cancer cells by targeting the tumor-related glycosphingolipid Gb3” (Communications Biology, 2022).

The structures appear in SMILES notation. Where two headings read alike, the source gives them in different places.

For this series, the target named is T1, hemolytic activity of SaroL-1 on rabbit erythrocytes (Salpingoeca rosetta, UniProt F2UID9).
T1 sequence (F2UID9 1-329): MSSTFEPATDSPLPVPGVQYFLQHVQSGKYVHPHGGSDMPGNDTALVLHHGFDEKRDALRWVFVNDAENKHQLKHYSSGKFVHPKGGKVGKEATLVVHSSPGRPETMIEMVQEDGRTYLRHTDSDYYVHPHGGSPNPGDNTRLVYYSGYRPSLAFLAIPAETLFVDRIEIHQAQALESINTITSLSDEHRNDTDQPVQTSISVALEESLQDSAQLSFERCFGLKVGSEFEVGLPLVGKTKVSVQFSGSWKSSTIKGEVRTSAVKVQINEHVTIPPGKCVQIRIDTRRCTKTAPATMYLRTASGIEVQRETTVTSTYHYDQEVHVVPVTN
The experiment in a line: Inhibition of hemolytic activity (IHA) of SaroL-1 by carbohydrates. Type of series: cell-based. The settings on record: for inhibition: SaroL-1 217 nM, read-out: Mean % inhibition of hemolysis. As to the method: Both HA and IHA assays were performed in U-shaped 96-well microtiter plates. In both cases, a control negative experiment was performed with Buffer A added to erythrocyte solution (2% final concentration), and the resulting value was subtracted from all data.
IHA was performed in U-shaped 96-well microtiter plates. […] 4% rabbit erythrocytes were added to the mixture in a 1:1 ratio and incubated for 1–2 h at 37 °C. The samples were centrifuged, 2600 × g for 15 min at RT, and the absorbance of the supernatant was measured at 540 nm by a Tecan reader.

A word on the inhibition: it is the drop in the measured response relative to a control, in per cent. As to `O=[N+]([O-])c1ccc(O[C@H]2O[C@H](CO)[C@H](O)[C@H](O)[C@H]2O)cc1` [PNPG, p-nitrophenyl-α-D-galactopyranoside], the “inhibition of hemolysis (in words)” value (10 mM carbohydrate) is “complete inhibition”. Also, the inhibition (sugar 0.003 mM) is 8.15%; the inhibition (sugar 0.006 mM) was 10.7%; the inhibition (sugar 0.0125 mM) turned out to be 12.1%; the inhibition (sugar 0.025 mM) worked out at 9.06%; the inhibition (sugar 0.05 mM) was found to be 3.85%; the inhibition (sugar 0.1 mM) was 3.39%. The inhibition is, setting by setting: (sugar 0.2 mM) 1.44%; (sugar 0.4 mM) 2.69%; (sugar 0.8 mM) 8.59%; (sugar 1.6 mM) 24.5%; (sugar 3.125 mM) 55.9%; (sugar 6.25 mM) 90.5%. For the same molecule, the inhibition turned out to be 100% (sugar 12.5 mM), 100% (sugar 25 mM) and 100% (sugar 50 mM).
